Test system: Scenedesmus cavuolatus (CS, Chlorella fusca)
Assay: Determination of the resistance to colonization by algae (render coat on paper, media for algae)
Assay type: cell-based
Conditions: +0.25% benzalkonium chloride, 50% strength, 5 month storage
Protocol: The unfinished material (commercially available render, pH 11.5) is treated, in separate batches, with different concentrations of the preservative A according to the invention.
The test was carried out once after the samples had been prepared and then after storage in wet render for 3 months or 5 months.
Laboratory method for determining the resistance of facade coats to colonization by algae. In this method, facade coats on standardized paper are used as the test substrate, and Scenedesmus cavuolatus (CS, Chlorella fusca) as the test alga.
The experiments are carried out in Petri dishes on media for algae.
1000 g of the material to be finished were, in separate batches, mixed with various concentrations of the test microbicide and homogenized using a suitable stirrer.
Paper supports (Schleicher & Schüll No. 2589 B/X 24078) 90×270 mm in size are coated with the test material. The paint or render samples are applied as a coat to wet-layer thickness of 250 μm, using a knife. The knife must have an opening of at least 6.5 cm in width. In the case of renders, the layer thickness depends on the particle size, as is the case under practice conditions. The coated supports, hereinbelow referred to as test specimens, are subsequently dried for 5 days in a horizontal position. […]
The colonization of the samples with algae is examined and evaluated after 2 weeks. […]

## benzalkonium chloride [benzalkonium chloride, 50% strength]
First group of rows (leaching not given, presumably none)
  Inhibitory zone in mm: >18 mm
Second group of rows (leaching not given, presumably 72 h)
  Inhibitory zone in mm: >18 mm

From patent publication US20070093538A1, “Preparation for the fungicidal and algicidal finish of alkaline coating compositions” (priority 2005, published 2007)
